Results published in publication PMC11882969 (Nature Communications, 2025).

Target: CB1 (rCB1) (Rattus norvegicus, UniProt P20272)
Assay: Single-point radioligand displacement screen
Type: binding
Details: for % 1H-CP-55,940 displacement (mean) from single point screen: 10 µM, 1 µM or 300 nM by cell colour (not visible); for rep1_displacement / rep2_displacement / rep3_displacement: Figure 1c source data; for rep1_displacement: replicate 1; for rep2_displacement: replicate 2; for rep3_displacement: replicate 3; for % radioligand displacement [S.D]: single point at 10 µM, three replicates

Sequence of CB1 (rCB1) (P20272 whole entry): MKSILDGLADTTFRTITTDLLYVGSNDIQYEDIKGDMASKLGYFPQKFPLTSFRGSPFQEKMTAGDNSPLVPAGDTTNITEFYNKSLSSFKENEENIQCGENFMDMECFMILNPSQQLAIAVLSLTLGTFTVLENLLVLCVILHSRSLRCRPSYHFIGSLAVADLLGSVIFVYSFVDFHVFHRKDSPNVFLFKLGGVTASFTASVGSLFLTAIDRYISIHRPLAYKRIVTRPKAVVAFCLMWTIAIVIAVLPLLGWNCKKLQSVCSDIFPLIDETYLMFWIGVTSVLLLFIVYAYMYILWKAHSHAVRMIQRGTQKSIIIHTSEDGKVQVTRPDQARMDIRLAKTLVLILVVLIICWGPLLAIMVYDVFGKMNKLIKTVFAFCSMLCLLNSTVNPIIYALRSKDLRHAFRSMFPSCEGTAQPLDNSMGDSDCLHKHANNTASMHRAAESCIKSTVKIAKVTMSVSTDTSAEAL

For `COC1CCn2cc(C(=O)NCC(Cc3ccccc3)c3ccccc3)nc2C1` (centres unmarked) [compound 96198], the “% 1H-CP-55,940 displacement (mean) from single point screen” value (shortened to “% 1H-CP-55,940 displacement (mean)”) was 18.71%, the rep1_displacement was 19.2 and the rep2_displacement was 20.5. For the same molecule, the rep3_displacement was 16.4.
With `CCOC(=O)C(NC(=O)c1cc(C)n(-c2cccc(F)c2)n1)C1CCOCC1` (centres unmarked) [compound 64854] the “% 1H-CP-55,940 displacement (mean)” value was -2.51%.
In the case of `Cn1nc(-c2nnc(C(C)(C)Oc3cccc(Cl)c3)o2)c2ccccc2c1=O` [0450_22], the “% 1H-CP-55,940 displacement (mean)” value is reported as 43.54%.
In the case of `O=C1Cc2cc(-c3csc(Cc4ccc(F)cc4)n3)cc3c2N1CCC3` [‘1038], the “% 1H-CP-55,940 displacement (mean)” value is reported as 53.57%, the rep1_displacement is reported as 56.9 and the rep2_displacement is reported as 51.4. For the same molecule, the rep3_displacement was 52.5 and the “% radioligand displacement [S.D]” value was 53.6% [2.91].
For `Cc1c(C(=O)OCC2CSc3ccccc3O2)nnn1Cc1ccc(F)cc1` (centres unmarked) [compound 61926], the “% 1H-CP-55,940 displacement (mean)” value was 64.39%.
`CC1OCCC12CN(C(=O)c1oc3ccccc3c1COc1ccccc1)CCO2` (centres unmarked) [compound 70889] was tested, and the “% 1H-CP-55,940 displacement (mean)” value was 46.62%, the rep1_displacement was 47.8 and the rep2_displacement was 46.3. The rep3_displacement was 45.8.
In the case of `CCOC(=O)c1nc(-c2nc(Cc3cc4c(cc3Br)OCO4)no2)cs1` [7019_300], the “% 1H-CP-55,940 displacement (mean)” value is reported as 3.83%.
For `Cc1nc(CC2CC2)oc1-c1nc(Cc2ccc3c(c2)OCO3)no1` [compound 97058], the “% 1H-CP-55,940 displacement (mean)” value was 17.45%.
`Cn1nc(Cc2nnc(C(C)(C)Oc3ccc(Cl)cc3)o2)c2ccccc2c1=O` [0450_25] was tested, and the “% 1H-CP-55,940 displacement (mean)” value was -12.39%.
For `Cc1c(C(=O)OCC2CSc3ccccc3O2)cnn1Cc1ccc2ccccc2c1` (centres unmarked) [7800_24], the “% 1H-CP-55,940 displacement (mean)” value was 50.03%.
`COC(=O)C(NC(=O)c1ccc(-c2ccccc2F)o1)c1ccsc1` (centres unmarked) [compound 07099] was tested, and the “% 1H-CP-55,940 displacement (mean)” value was 3.88%.
For `COC(=O)C(NC(=O)c1cc(C)n(-c2ccccc2)n1)c1cccnc1` (centres unmarked) [compound 03453], the “% 1H-CP-55,940 displacement (mean)” value was -5.45%.
For `O=C(NCC1CSc2ccccc2O1)c1ncc(Cc2ccccc2)o1` (centres unmarked) [compound 5752], the “% 1H-CP-55,940 displacement (mean)” value was 24.02%.
With `O=C1C(=O)N(C23CC4CC(CC(C4)C2)C3)C(=O)N1CC1CCC(C(F)(F)F)CC1` (centres unmarked) [compound 8441] the “% 1H-CP-55,940 displacement (mean)” value was 47.91%, the rep1_displacement was 51.8 and the rep2_displacement was 42.6. For the same molecule, the rep3_displacement was 49.3.
`O=C1CN(C(=O)c2ccc(Cl)c3cccnc23)CN1Cc1ccccc1` [compound 14861] was tested, and the “% 1H-CP-55,940 displacement (mean)” value was 15.10%, the rep1_displacement was 15 and the rep2_displacement was 15.3. The rep3_displacement was 15.
With `COc1cc(C(=O)OCC2CCCN2c2ccc(C)nn2)ccc1Cl` (centres unmarked) [compound 65703] the “% 1H-CP-55,940 displacement (mean)” value was 17.38%, the rep1_displacement was 11.4 and the rep2_displacement was 18.4. The rep3_displacement was 22.4.
With `CN(C)c1cc(-c2nc(Cc3ccc4c(c3)OCCO4)no2)c2ccccc2n1` [compound 85562] the “% 1H-CP-55,940 displacement (mean)” value was 44.88%, the rep1_displacement was 45.9 and the rep2_displacement was 44.2. It also gave a rep3_displacement of 44.5.
For `Cc1cc(C(=O)NC(CCO)Cc2ccccc2)nn1-c1ccc(F)cc1` (centres unmarked) [compound 15032], the “% 1H-CP-55,940 displacement (mean)” value was -0.53%.
`N#Cc1cccc(-n2ccc(C(=O)OCC3CSc4ccccc4O3)n2)c1` (centres unmarked) [compound 2666] was tested, and the “% 1H-CP-55,940 displacement (mean)” value was 30.46%.
In the case of `Cc1cc(C(=O)N2CC3(CCC3)C2c2ccco2)nn1-c1cccc(C(F)(F)F)c1` (centres unmarked) [10_10], the “% 1H-CP-55,940 displacement (mean)” value is reported as 94.41%.
With `COC(=O)C(OC(=O)c1cc(C)n(-c2cccc(Cl)c2)n1)c1ccsc1` (centres unmarked) [compound 75729] the “% 1H-CP-55,940 displacement (mean)” value was 29.65%, the rep1_displacement was 32.1 and the rep2_displacement was 28. The rep3_displacement was 28.8.
In the case of `CC(O)C1CCCN(C(=O)c2cc(Oc3cccc(Br)c3)ccn2)C1` (centres unmarked) [compound 74717], the “% 1H-CP-55,940 displacement (mean)” value is reported as 17.22%, the rep1_displacement is reported as 25.4 and the rep2_displacement is reported as 11.4. The rep3_displacement was 14.8.
For `Cn1ncc2c(N3CCC(COCc4ccccc4)C3)nc(Cl)nc21` (centres unmarked) [compound 66978], the “% 1H-CP-55,940 displacement (mean)” value was -5.01%, the rep1_displacement was 10 and the rep2_displacement was -21.7. The rep3_displacement was -3.3.
In the case of `Cc1ccn2cc(C(=O)N3CCc4c(F)cc(Br)cc4C3)nc2c1` [compound 35971], the “% 1H-CP-55,940 displacement (mean)” value is reported as 13.78%, the rep1_displacement is reported as 9.7 and the rep2_displacement is reported as 11.6. It also gave a rep3_displacement of 20.
In the case of `O=C(c1ccccc1CS(=O)(=O)c1ccccc1)N1CCC(c2cccc(F)c2)C1` (centres unmarked) [compound 41949], the “% 1H-CP-55,940 displacement (mean)” value is reported as 33.74%, the rep1_displacement is reported as 30 and the rep2_displacement is reported as 36.7. The rep3_displacement was 34.6.
For `Cc1c(C(=O)OCC2CSc3ccccc3S2)cnn1Cc1ccccc1` (centres unmarked) [7800_26], the “% 1H-CP-55,940 displacement (mean)” value was 69.84%.
For `COCCOc1cc(C(=O)N2CCCC(CC3CCOC3)C2)nc2ccccc12` (centres unmarked) [compound 49667], the “% 1H-CP-55,940 displacement (mean)” value was 4.27%, the rep1_displacement was 10.3 and the rep2_displacement was 4.1. The rep3_displacement was -1.6.
With `O=C(OCC1CSc2ccccc2O1)c1ccc(Cn2cccc2)cc1` (centres unmarked) [compound 30177] the “% 1H-CP-55,940 displacement (mean)” value was 18.40%.
`O=C(OCc1nc2ccccc2s1)c1c2c(nc3ccccc13)CCC2` [compound 47700] was tested, and the “% 1H-CP-55,940 displacement (mean)” value was 27.24%, the rep1_displacement was 29.5 and the rep2_displacement was 33.4. For the same molecule, the rep3_displacement was 18.9.
`COc1cccc(C2(C)CCN(C(=O)CC34CCCCC3C4(F)F)C2)c1` (centres unmarked) [‘7218] was tested, and the “% 1H-CP-55,940 displacement (mean)” value was 52.18%, the rep1_displacement was 43.4 and the rep2_displacement was 33. For the same molecule, the rep3_displacement was 80.2 and the “% radioligand displacement [S.D]” value was 52.2% [24.79].
For `COC(=O)C(NC(=O)c1coc(C2CCOCC2)n1)c1cccs1` (centres unmarked) [compound 19213], the “% 1H-CP-55,940 displacement (mean)” value was 1.83%.
In the case of `COC(=O)[C@H]1Cc2ccccc2CN1C(=O)c1cc(C)n(-c2cccc(F)c2)n1` [compound 76400], the “% 1H-CP-55,940 displacement (mean)” value is reported as -1.48%.
For `Cc1nc(CC2CC2)oc1-c1nc(-c2ccc3c(c2)OCO3)no1` [compound 5962], the “% 1H-CP-55,940 displacement (mean)” value was 10.45%.
`O=C(OCC1CSc2ccccc2O1)c1cnn(Cc2ccccc2)c1Br` (centres unmarked) [7800_27] was tested, and the “% 1H-CP-55,940 displacement (mean)” value was 70.31%.
In the case of `COC(=O)C(NC(=O)c1cc(-c2cccc(F)c2)c2ccccc2c1)c1cccs1` (centres unmarked) [1486_17], the “% 1H-CP-55,940 displacement (mean)” value is reported as 8.92%.
With `Cc1ccccc1-n1c(=O)c2ccccc2n2c(SC[C@H]3CCCO3)nnc12` [compound 97662] the “% 1H-CP-55,940 displacement (mean)” value was 18.48%, the rep1_displacement was 20.6 and the rep2_displacement was 19.4. It also gave a rep3_displacement of 15.5.
With `O=C(OCC1CSc2ccccc2O1)c1ccc(Oc2cccnc2)cc1` (centres unmarked) [compound 82778] the “% 1H-CP-55,940 displacement (mean)” value was 26.16%.
For `Cc1c(C(=O)OCC2CSc3ccccc3O2)cnn1Cc1cccc(C(F)(F)F)c1` (centres unmarked) [7800_25], the “% 1H-CP-55,940 displacement (mean)” value was 58.49%.
For `COC(=O)C(NC(=O)c1cc(C)n(-c2cccc(Cl)c2)n1)c1ccc(C(F)(F)F)cc1` (centres unmarked) [compound 14083], the “% 1H-CP-55,940 displacement (mean)” value was 24.29%.
With `O=C(OCC1CSc2ccccc2O1)c1cc(Oc2ccccc2)ccn1` (centres unmarked) [compound 50267] the “% 1H-CP-55,940 displacement (mean)” value was 15.53%.
For `CC1C(C(F)(F)F)CCN1C(=O)c1csc(N(C)c2ccccc2)n1` (centres unmarked) [compound 27005], the “% 1H-CP-55,940 displacement (mean)” value was 32.20%, the rep1_displacement was 31.7 and the rep2_displacement was 30.7. The rep3_displacement was 34.2.
`COC(=O)C(NC(=O)c1cc(C)n(-c2ccccc2)n1)c1cccs1` (centres unmarked) [compound 59643] was tested, and the “% 1H-CP-55,940 displacement (mean)” value was 4.63%.
With `O=C(OCc1ccc(Cl)cc1-n1cncn1)c1ccnc(OC2CCC2)c1` [compound 91451] the “% 1H-CP-55,940 displacement (mean)” value was 17.98%, the rep1_displacement was 15.6 and the rep2_displacement was 20.4.
In the case of `CC(C)n1nc(-c2nnc(C(C)(C)Oc3ccc(Cl)cc3)o2)c2ccccc2c1=O` [compound 41360], the “% 1H-CP-55,940 displacement (mean)” value is reported as 41.24%.
`CCOC(=O)C1(NC(=O)c2cc(C)n(-c3cccc(Cl)c3)n2)CCCCC1` [compound 64801] was tested, and the “% 1H-CP-55,940 displacement (mean)” value was 31.60%.
`COC(=O)c1cc(C(=O)N2CCc3ccc(Cl)cc3C2)cc([N+](=O)[O-])c1` [compound 25719] was tested, and the “% 1H-CP-55,940 displacement (mean)” value was 24.96%, the rep1_displacement was 30.1 and the rep2_displacement was 24.6. For the same molecule, the rep3_displacement was 20.2.
In the case of `CC(Oc1ccccc1)c1noc(-c2ccc(=O)n(-c3ccc(F)cc3)n2)n1` (centres unmarked) [compound 34765], the “% 1H-CP-55,940 displacement (mean)” value is reported as 18.38%, the rep1_displacement is reported as 25 and the rep2_displacement is reported as 13.3. It also gave a rep3_displacement of 16.8.
With `N#CCCn1ncc(C(=O)OCC2CSc3ccccc3O2)c1-c1ccccc1` (centres unmarked) [compound 0372] the “% 1H-CP-55,940 displacement (mean)” value was 41.18%.
With `CC(C)c1ncc(Cl)c(C(=O)N2CC(Cc3ccccc3Cl)C2)n1` [compound 56513] the “% 1H-CP-55,940 displacement (mean)” value was 36.74%, the rep1_displacement was 17.6 and the rep2_displacement was 25.1. The rep3_displacement was 67.5.
In the case of `Cc1onc(-c2ccccc2)c1C(=O)OCc1cn2cc(Cl)ccc2n1` [compound 74872], the “% 1H-CP-55,940 displacement (mean)” value is reported as 49.60%, the rep1_displacement is reported as 51.6 and the rep2_displacement is reported as 49.2. For the same molecule, the rep3_displacement was 48.
`N#Cc1cccc(OCc2ccoc2C(=O)OCC2CSc3ccccc3O2)c1` (centres unmarked) [compound 35424] was tested, and the “% 1H-CP-55,940 displacement (mean)” value was 60.22%.
With `Cc1nc(CC2CC2)oc1-c1nc(Cc2ccc(OCc3ccccn3)cc2)no1` [compound 9841] the “% 1H-CP-55,940 displacement (mean)” value was 19.42%.
With `CCOc1cncc(NC(=O)c2cc(C)n(-c3cccc(Cl)c3)n2)n1` [compound 88160] the “% 1H-CP-55,940 displacement (mean)” value was -5.87%.
`Cc1nc(CC2CC2)oc1-c1nc(Cc2cc(Br)c3c(c2)OCO3)no1` [compound 53217] was tested, and the “% 1H-CP-55,940 displacement (mean)” value was 14.33%.
`COC(=O)C(OC(=O)c1cc(C)n(-c2ccc(F)cc2)n1)c1ccccc1` (centres unmarked) [compound 62406] was tested, and the “% 1H-CP-55,940 displacement (mean)” value was -3.66%.
